Experiments:
[1] = test system: octopamine receptor sites; assay: 3H-OA binding to ventral nerve cord / synaptosomal membrane protein; parameters: species or system American cockroach (Periplaneta americana); settings: for classification with respect to octopamine receptor sites (OAR): based on the binding data of Tables 1-3; for dpm 3H-OA/500 μg protein: Table 2
Method: Different concentrations of unlabeled octopamine (OA) (20, 30, 40, 50, 60, 100 ng) were tested on the binding activity as a positive control. Test chemicals were dissolved in acetone before the assay. Different concentrations of the test chemicals were added directly to the protein preparation from ventral nerve cord. The same amount of solvent (1 μl 0.1%) were added to the control samples. All assays with test chemicals were run in the presence and absence of 50 ng OA. All chemicals were added to the protein extract 20 min prior the addition of radio labeled ^3H-OA(100,000 cpm/sample). After 30 min at 24° C. of the addition of ^3H-OA, the reaction was stopped by the addition of ice-cold Tris buffer, and the samples were filtered through GF/C membrane using water vacuum. After two washes each with 5 ml Tris buffer, the membrane was removed, air dried and the radioactivity was counted in 4 ml liquid scintillation solution. The specific binding was calculated as the difference between the values in the presence and absence of unlabeled OA. All data are calculated as the mean±standard deviation of 5 assays.
Additional tests were conducted on radio labeled octopamine using other purified naturally occurring materials as given in Tables 2 and 3.

[2] = test system: American cockroach; assay: Lethal effect of injected test chemicals; assay type: in vivo
Method: Further studies were conducted to determine the LD 50 of purified naturally occurring plant essential oils and/or their constituents. […] Ten roaches per dose were used. Another group of ten roaches received the same volume of vehicle only (0.5 μl) and used as a control group. Mortality was recorded 24, 48, and 72 hours after exposure.

[3] = test system: heart of American cockroach (octopamine receptors); assay: Heartbeat after application to thoracic segment; assay type: in vivo; settings: mean ±SD of three roaches; for Heart beat/30 sec 30 min after treatment: 300 μg applied to thoracic segment; for Heart beat/30 sec before treatment: baseline of the same roaches
Method: To further establish the effect of the purified naturally occurring plant essential oils and/or their constituents on the American cockroach, a 300 μg amount of the chemical was applied to the thoracic segment of an intact and alive American cockroach. The heart beats/30 seconds was measured. The heart of the cockroach is known to have a high concentration of octopamine receptors and the heart beat is considered an important measurement to indicate the effect of the applied chemicals to the octopamine receptors.

[4] = test system: American cockroach; assay: Cross walk jar test on pre-treated surface; assay type: in vivo
Method: In the test, a known amount of the test material was dissolved in a known volume of acetone and applied to small jars and all inner bottom surfaces were covered. The bottom surface of each jar is approximately 250 cm^2. One hour after the acetone had completely evaporated, five American cockroaches were introduced to each jar. Control jars were treated exactly as above but with the known amount of acetone only.
The results of the “cross walk” jar tests are in Table 8 in which the “4-blend” was dispersed as an aerosol and a dust in the jar.
In this test, the acetone solution of the test material was placed in the jar and the roach inserted into the jar after the acetone had evaporated.
Mortality was measured 24 hours after exposure.
The “4-blend” and the individual constituents of the “4-blend” were tested using 10 cockroaches for each “cross walk” treatment. In addition, pyrethrins were tested separately and mixed with the various components.
A concentration of 100 mg/jar was used for each individual alone. In the co-treatment experiment without pyrethrins, 20 mg/jar for each chemical was used. In the cotreatment experiment with pyrethrins, 20 mg/jar for the naturally occurring plant material was used. Pyrethrins was used at 2 mg/jar. […] It was noted above that the mortality is dependent upon concentration. […] Some synergism is found between pyrethrins and either α-terpineol or benzyl alcohol.

[5] = 500 ng/ml, Table 3, solvent control 1385 ± 101
[6] = 1000 ng/ml, Table 3, solvent control 1915 ± 110
[7] = 500 μg/roach injected into thoracic and abdominal segments, 24 hr., dead/10
[8] = 500 μg/roach injected, 48 hr., dead/10
[9] = 500 μg/roach injected, 72 hr., dead/10, control 1/10
[10] = 500 ng/ml, solvent control 1101 ± 120
[11] = 1000 ng/ml, solvent control 930 ± 89
[12] = 300 ng test chemical, Table 1, solvent control 1280 ± 259
[13] = 500 ng test chemical, Table 1, solvent control 1280 ± 259
[14] = 700 ng test chemical, Table 1, solvent control 1280 ± 259
[15] = 1000 ng test chemical, Table 1, solvent control 1280 ± 259
[16] = 1500 ng test chemical, Table 1, solvent control 1280 ± 259

Q: What does the source list for `C=C(C)[C@H]1CC=C(C)CC1` [R-limonene]?
A: cpm 3H-OA/500 μg protein [1, 5]: 1436 ± 133 cpm 3H-OA/500 μg protein; classification with respect to octopamine receptor sites (OAR) [1]: Non-OAR Specific Toxicants

Q: What does the source list for `C/C=C/c1ccc(OC)cc1` [Trans-Anethole]?
A: agonist/antagonist note to 3H-OA binding ([1]; 500 ng/ml): antagonist; cpm 3H-OA/500 μg protein [1, 5]: 1104 ± 110 cpm 3H-OA/500 μg protein; cpm 3H-OA/500 μg protein [1, 6]: 970 ± 87 cpm 3H-OA/500 μg protein; classification with respect to octopamine receptor sites (OAR) [1]: moderate OAR antagonists

Q: `COc1cc(C=O)ccc1O` [Vanillin] was tested. Which “agonist/antagonist note to 3H-OA binding” value ([1]; 500 ng/ml) did it give?
A: Its value is “antagonist”.

Q: And the “cpm 3H-OA/500 μg protein” value [1, 5]?
A: Its value is 1030 ± 83 cpm 3H-OA/500 μg protein.

Q: And the “cpm 3H-OA/500 μg protein” value [1, 6]?
A: Its value is 700 ± 55 cpm 3H-OA/500 μg protein.

Q: For `CC(C)=CCCC(C)CC=O` (centres unmarked) [citronellal], which Mortality [2, 7] is on record?
A: Its Mortality is 0/10.

Q: And the Mortality [2, 8]?
A: The Mortality was 0/10.

Q: And the Mortality [2, 9]?
A: The Mortality was 0/10.

Q: With `C=C(C)[C@H]1CC=C(C)CC1` [d-limonene] as the compound, how does the Mortality [2, 7] read?
A: The Mortality was 0/10.

Q: What about the Mortality [2, 8] of the same compound?
A: The Mortality was 0/10.

Q: And the Mortality [2, 9]?
A: The Mortality was 0/10.

Q: And the “activity/binding at octopamine receptor sites, in words” value [1]?
A: Its value is “no activity against octopamine receptor sites”.

Q: What about the “dpm 3H-OA/500 μg protein” value [1, 10] of the same compound?
A: Its value is 1194 ± 101 dpm 3H-OA/500 μg protein.

Q: And the “dpm 3H-OA/500 μg protein” value [1, 11]?
A: The value was 866 ± 71 dpm 3H-OA/500 μg protein.

Q: What does the source list for `Cc1ccc(C(C)C)cc1` [p-cymene]?
A: agonist/antagonist note to 3H-OA binding ([1]; 500 ng/ml): antagonist; cpm 3H-OA/500 μg protein [1, 5]: 1142 ± 074 cpm 3H-OA/500 μg protein; cpm 3H-OA/500 μg protein [1, 6]: 804 ± 057 cpm 3H-OA/500 μg protein; classification with respect to octopamine receptor sites (OAR) [1]: moderate OAR antagonists

Q: Which “Heart beat/30 sec 30 min after treatment” value [3] does the source give for `OCCc1ccccc1` [phenethyl alcohol] here?
A: The value was 29 ± 2 beat/30 sec.

Q: What about the “Heart beat/30 sec before treatment” value [3] of the same compound?
A: The value was 47 ± 2 beat/30 sec.

Q: And the Mortality [2, 7]?
A: The Mortality was 0/10.

Q: And the Mortality [2, 8]?
A: Its Mortality is 0/10.

Q: What about the Mortality [2, 9] of the same compound?
A: The Mortality was 0/10.

Q: What about the mortality at 100 mg ([4]; Periplaneta americana, 24 h) of the same compound?
A: Its mortality at 100 mg is 0%.

Q: And the mortality at 100 mg ([4]; Periplaneta americana, 48 h)?
A: The mortality at 100 mg was 0%.

Q: What about the mortality at 100 mg ([4]; Periplaneta americana, 72 h) of the same compound?
A: Its mortality at 100 mg is 0%.

Q: What does the source list for `CC(C)=C1CC[C@@H](C)CC1=O` [pulegone]?
A: Mortality ([2]; 50 μg injected through the end of the abdominal segment, 48 hr. after treatment): 20%; Mortality 24 hr after treatment ([2]; 300 μg, dead/10): 3/10; Mortality 24 hr after treatment ([2]; 400 μg, dead/10): 5/10; Mortality [2, 7]: 6/10; Mortality [2, 8]: 6/10; Mortality [2, 9]: 7/10; Mortality 24 hr after treatment ([2]; 500 μg, dead/10): 5/10; Mortality 24 hr after treatment ([2]; 600 μg, dead/10): 8/10; Mortality 24 hr after treatment ([2]; 700 μg, dead/10): 10/10; cpm 3H-OA/500 μg protein [1, 12]: 936 ± 33 cpm 3H-OA/500 μg protein; cpm 3H-OA/500 μg protein [1, 13]: 778 ± 22 cpm 3H-OA/500 μg protein; cpm 3H-OA/500 μg protein [1, 14]: 662 ± 51 cpm 3H-OA/500 μg protein; cpm 3H-OA/500 μg protein [1, 15]: 435 ± 22 cpm 3H-OA/500 μg protein; cpm 3H-OA/500 μg protein [1, 16]: 217 ± 18 cpm 3H-OA/500 μg protein; classification with respect to octopamine receptor sites (OAR) [1]: high OAR antagonists; mortality at 10 mg ([4]; Periplaneta americana, 24 h): 100%; pesticidal activity against cockroaches, in words ([4]; in vivo): high pesticidal activity

Q: With `CC1=CC[C@H](C(C)C)C=C1` [α-phellandrene] as the compound, how does the “agonist/antagonist note to 3H-OA binding” value ([1]; 500 ng/ml) read?
A: Its value is “agonist”.

Q: What about the “cpm 3H-OA/500 μg protein” value [1, 5] of the same compound?
A: Its value is 2353 ± 343 cpm 3H-OA/500 μg protein.

Q: And the “classification with respect to octopamine receptor sites (OAR)” value [1]?
A: Its value is “OAR Agonists”.

Q: Which results are given for `CC1=CCC(C(C)(C)O)CC1` (stereo not drawn) [α-terpineol]?
A: Heart beat/30 sec 30 min after treatment [3]: 32 ± 2 beat/30 sec; Heart beat/30 sec before treatment [3]: 58 ± 4 beat/30 sec; cpm 3H-OA/500 μg protein [1, 12]: 1213 ± 110 cpm 3H-OA/500 μg protein; cpm 3H-OA/500 μg protein [1, 13]: 1031 ± 24 cpm 3H-OA/500 μg protein; cpm 3H-OA/500 μg protein [1, 14]: 910 ± 88 cpm 3H-OA/500 μg protein; cpm 3H-OA/500 μg protein [1, 15]: 700 ± 88 cpm 3H-OA/500 μg protein; cpm 3H-OA/500 μg protein [1, 16]: 565 ± 47 cpm 3H-OA/500 μg protein; classification with respect to octopamine receptor sites (OAR) [1]: moderate OAR antagonists; mortality at 100 mg ([4]; Periplaneta americana, 24 h): 20%; mortality at 100 mg ([4]; Periplaneta americana, 48 h): 30%; mortality at 100 mg ([4]; Periplaneta americana, 72 h): 60%

Q: With Citronellal 80 as the compound, how does the “agonist/antagonist note to 3H-OA binding” value ([1]; 500 ng/ml) read?
A: The value was “antagonist”.

Q: What about the “dpm 3H-OA/500 μg protein” value [1, 10] of the same compound?
A: The value was 725 ± 95 dpm 3H-OA/500 μg protein.

Q: And the “dpm 3H-OA/500 μg protein” value [1, 11]?
A: The value was 526 ± 33 dpm 3H-OA/500 μg protein.

Q: And the “classification with respect to octopamine receptor sites (OAR)” value [1]?
A: The value was “moderate OAR antagonists”.
